Data as given in patent US8889131B2, “NOTCH inhibition in the treatment and prevention of a metabolic disease or disorder and cardiovascular complications thereof” (The Brigham and Women's Hospital, Inc., priority 2009, dated 2014).

How the values were obtained:
Assay type in all cases: cell-based, mouse
[1] = test system: Dll4-mediated Notch signaling; assay: MCP-1 expression in differentiated 3T3-L1 adipocytes
Procedure: 3T3-L1 preadipocytes (American Type Culture Collection) were maintained in Dulbecco's modified Eagle's medium (DMEM) (Gibco) containing 10% FBS. Differentiation of 3T3-L1 preadipocytes to mature adipocytes was performed as previously described and used as differentiated 3T3-L1 adipocytes at day 10 after the induction of differentiation. Differentiation was initiated two days after cells were confluent by adding fresh medium containing 0.5 mM isobutylmethylxanthine, 1 μM dexamethasone, and 10 μg/ml insulin. After two days, the methylisobutylxanthine and dexamethasone were removed and insulin was maintained for two additional days. On day 4 and thereafter, DMEM containing only 10% FBS was replaced every two days. […]
Applicants transfected siRNA against mouse Dll4 (Dharmacon), plasmid encoding mouse Dll4 (GeneCopoeia), RBP-Jκ reporter (SABiosciences), and Notch3 intracellular domains (N3ICD) to 3T3-L1 adipocytes by electroporation (Nucleofector system; Amaxa) according to the manufacturer's instructions. […] Luciferase activity was determined using a Dual-Luciferase Reporter Assay System (Promega). […]
(§1) Applicants synthesized cDNA from total RNA extracted from tissues and cells. Real-time quantitative RT-PCR was done with a MyiQ single-color real-time PCR detection system (BioRad) and PerfeCTa SYBR Green SuperMix for iQ (Quanta Biosciences). […]

[2] = test system: Dll4-mediated Notch signaling; assay: M1/M2 gene expression in RAW264.7 cells
Procedure: RAW264.7 cells (American Type Culture Collection) were also maintained in DMEM containing 10% FBS. For blockade of Dll4-mediated Notch signaling, Applicants pre-treated RAW264.7 cells with Dll4 Ab or IgG for 2 hours and then stimulated these cells with 1 ng/ml LPS for 24 hours. LPS stimulation activates the Notch signaling in RAW264.7 cells.
Applicants transfected siRNA against mouse Dll4 (Dharmacon), plasmid encoding mouse Dll4 (GeneCopoeia), RBP-Jκ reporter (SABiosciences), and Notch3 intracellular domains (N3ICD) to 3T3-L1 adipocytes by electroporation (Nucleofector system; Amaxa) according to the manufacturer's instructions. The Dll4-expressing plasmid was also transfected to RAW264.7 cells. N3ICD was a generous gift from Dr. Shigeru Chiba (Department of Clinical and Experimental Hematology, Graduate School of Comprehensive Human Sciences, University of Tsukuba). Applicants transfected 2 μg of siRNA or plasmid to cells and harvested them 48 hours or 24 hours after transfection, respectively. […] Luciferase activity was determined using a Dual-Luciferase Reporter Assay System (Promega). […]
as §1

RBP-Jκ reporter = RBP-Jκ reporter luciferase assay in 3T3-L1 adipocytes; conditions: 3T3-L1 adipocytes on rDll4-coated plates
Text: Applicants transfected siRNA against mouse Dll4 (Dharmacon), plasmid encoding mouse Dll4 (GeneCopoeia), RBP-Jκ reporter (SABiosciences), and Notch3 intracellular domains (N3ICD) to 3T3-L1 adipocytes by electroporation (Nucleofector system; Amaxa) according to the manufacturer's instructions. The Dll4-expressing plasmid was also transfected to RAW264.7 cells. N3ICD was a generous gift from Dr. Shigeru Chiba (Department of Clinical and Experimental Hematology, Graduate School of Comprehensive Human Sciences, University of Tsukuba). Applicants transfected 2 μg of siRNA or plasmid to cells and harvested them 48 hours or 24 hours after transfection, respectively. Applicants used 5 μl of RBP-Jκ reporter solution for each transfection. After incubation for 24 hours, cells were seeded to rDll4-coated plates and used for the luciferase assay after 48-hour incubation. Luciferase activity was determined using a Dual-Luciferase Reporter Assay System (Promega). Applicants transfected 5 μg of N3ICD to cells and harvested them 24 hours after transfection.

NF-κB pathway = assay: NF-κB activation in 3T3-L1 adipocytes (immunoblotting, immunocytochemistry)
Procedure: Differentiated 3T3-L1 adipocytes were starved for 16 hours and then used for in vitro experiments. For blockade Dll4-mediated Notch signaling, Applicants treated 3T3-L1 adipocytes with Dll4 Ab or IgG (10 μg/ml) and γ-secretase inhibitor (DAPT, 10 μM) or DMSO for 24 hours. To activate Dll4-mediated Notch signaling, Applicants seeded 3T3-L1 adipocytes to plates coated with recombinant mouse Dll4 (rDll4) (1 μg/ml), and then harvested cells after 48-hour incubation (Williams, et al., Blood 107:931-939 (2006)). Applicants also used SN50 (25 μg/ml) NF-κB inhibitor to determine the interaction between Notch signaling and the NF-κB pathway.
Differentiated 3T3-L1 adipocytes incubated in rDll4-coated plates were fixed in 4% paraformaldehyde and permeabilized with 0.1% NP40. After blocking with 1% goat serum, cells were incubated with a rabbit anti-p65 antibody (Santa Cruz Biotechnology), followed by an Alexa Fluor 594-conjugated donkey anti-rabbit Ig antibody (Molecular Probes). Nuclei were counterstained with Hoechst 33342 (Sigma). Cells were observed under an ECLIPSE TE2000-U (Nikon) equipped with a mercury illumination system and SPOT RT Camera (Diagnostic Instruments, Inc.).
Lysates prepared from tissues and cells in lysis buffer containing protease inhibitor cocktail (Sigma) and phosphatase inhibitor cocktail (Roche) were separated with SDS-PAGE gels. Applicants used the following antibodies: NF-κB p65 (Santa Cruz Biotechnology), phospho-NF-κB p65 (Rock Land), IK-Bα (Cell Signaling), and β-actin (Sigma).

RBP-Jκ reporter activity (RBP-Jκ reporter) | Compound | MCP-1 RNA expression ([1]; differentiated 3T3-L1 adipocytes, blockade of Notch signaling) | MCP-1 expression ([1]; 3T3-L1 adipocytes cultured on rDll4-coated dishes) | anti-inflammatory M2 genes (e.g., IL-10) [2] | expression of pro-inflammatory M1 genes such as IL-1β and iNOS [2] | degradation of IκBα (NF-κB pathway) | nuclear translocation of p65 (NF-κB pathway) | phosphorylation of NF-κB subunit p65 (NF-κB pathway)
 | C[C@H](NC(=O)Cc1cc(F)cc(F)c1)C(=O)N[C@H](C(=O)OC(C)(C)C)c1ccccc1 [DAPT] | produced a similar effect |  |  |  |  |  | 
Stimulation | rDll4: recombinant mouse Dll4 coated on plates to activate Dll4-mediated Notch signaling |  | promoted | suppressed | induced expression | increased | increased | increased
